Values quoted from earlier work in US20250195564A1, “IRON SUPPLEMENT COMPOSITIONS AND METHODS OF USE THEREOF” (ThermoLife International, LLC, priority 2021, published 2025).

Settings: iron supplementation; without supplementation mean 36±11 days

O=S(=O)([O-])[O-].[Fe+2] [iron sulfate]
time of hemoglobin recovery after blood donation: 32 days
